Assays:
Type in all cases: cell-based
K-562 = experiment: NCI 60 cell assay, leukemia K-562; conditions: Homo sapiens, K562, 48 h; K-562 (leukemia); drug exposure two days, SRB endpoint; read-out: GI-50 value
Procedure: (§1) Samples were tested in the standard National Cancer Institute 60-cell line protocol. First, they were tested against all 60 cell lines in a single final concentration of 10 micromolar. Then, they were separately tested in five 10-fold dilutions. The drug exposure was two days, with an SRB endpoint.

UO-31 = experiment: NCI 60 cell assay, renal UO-31; conditions: Homo sapiens, 48 h; UO-31 (renal); drug exposure two days, SRB endpoint; read-out: GI-50 value
Procedure: as §1

HL-60(TB) = experiment: NCI 60 cell assay, leukemia HL-60(TB); conditions: Homo sapiens, 48 h; HL-60(TB) (leukemia); drug exposure two days, SRB endpoint; read-out: GI-50 value
Procedure: as §1

HOP-92 = experiment: NCI 60 cell assay, NSCLC HOP-92; conditions: Homo sapiens, 48 h; HOP-92 (NSCLC); drug exposure two days, SRB endpoint; read-out: GI-50 value
Procedure: as §1

RPMI-8226 = experiment: NCI 60 cell assay, leukemia RPMI-8226; conditions: Homo sapiens, 48 h; RPMI-8226 (leukemia); drug exposure two days, SRB endpoint; read-out: GI-50 value
Procedure: as §1

RXF 393 = experiment: NCI 60 cell assay, renal RXF 393; conditions: Homo sapiens, 48 h; RXF 393 (renal); drug exposure two days, SRB endpoint; read-out: GI-50 value
Procedure: as §1

OVCAR-3 = experiment: NCI 60 cell assay, ovarian OVCAR-3; conditions: Homo sapiens, 48 h; OVCAR-3 (ovarian); drug exposure two days, SRB endpoint; read-out: GI-50 value
Procedure: as §1

HOP-62 = experiment: NCI 60 cell assay, NSCLC HOP-62; conditions: Homo sapiens, 48 h; HOP-62 (NSCLC); drug exposure two days, SRB endpoint; read-out: GI-50 value
Procedure: as §1

SW-620 = experiment: NCI 60 cell assay, colon SW-620; conditions: Homo sapiens, 48 h; SW-620 (colon); drug exposure two days, SRB endpoint; read-out: GI-50 value
Procedure: as §1

HCT-116 = experiment: NCI 60 cell assay, colon HCT-116; conditions: Homo sapiens, 48 h; HCT-116 (colon); drug exposure two days, SRB endpoint; read-out: GI-50 value
Procedure: as §1

OVCAR-8 = experiment: NCI 60 cell assay, ovarian OVCAR-8; conditions: Homo sapiens, 48 h; OVCAR-8 (ovarian); drug exposure two days, SRB endpoint; read-out: GI-50 value
Procedure: as §1

HCT-15 = experiment: NCI 60 cell assay, colon HCT-15; conditions: Homo sapiens, 48 h; HCT-15 (colon); drug exposure two days, SRB endpoint; read-out: GI-50 value
Procedure: as §1

SN12C = experiment: NCI 60 cell assay, renal SN12C; conditions: Homo sapiens, 48 h, drug exposure two days, SRB endpoint, read-out: GI-50 value
Procedure: as §1

DU-145 = experiment: NCI 60 cell assay, prostate DU-145; conditions: Homo sapiens, 48 h; DU-145 (prostate); drug exposure two days, SRB endpoint; read-out: GI-50 value
Procedure: as §1

SK-MEL-2 = experiment: NCI 60 cell assay, melanoma SK-MEL-2; conditions: Homo sapiens, 48 h; SK-MEL-2 (melanoma); drug exposure two days, SRB endpoint; read-out: GI-50 value
Procedure: as §1

MCF7 = experiment: NCI 60 cell assay, breast MCF7; conditions: Homo sapiens, 48 h, drug exposure two days, SRB endpoint, read-out: GI-50 value
Procedure: as §1

NCI-H226 = experiment: NCI 60 cell assay, NSCLC NCI-H226; conditions: Homo sapiens, 48 h, drug exposure two days, SRB endpoint, read-out: GI-50 value
Procedure: as §1

CCRF-CEM = experiment: NCI 60 cell assay, leukemia CCRF-CEM; conditions: Homo sapiens, 48 h, drug exposure two days, SRB endpoint, read-out: GI-50 value
Procedure: as §1

PC-3 = experiment: NCI 60 cell assay, prostate PC-3; conditions: Homo sapiens, 48 h; PC-3 (prostate); drug exposure two days, SRB endpoint; read-out: GI-50 value
Procedure: as §1

SNB-75 = experiment: NCI 60 cell assay, CNS SNB-75; conditions: Homo sapiens, 48 h; SNB-75 (CNS); drug exposure two days, SRB endpoint; read-out: GI-50 value
Procedure: as §1

KM12 = experiment: NCI 60 cell assay, colon KM12; conditions: Homo sapiens, 48 h, drug exposure two days, SRB endpoint, read-out: GI-50 value
Procedure: as §1

MDA-MB-231/ATCC = experiment: NCI 60 cell assay, breast MDA-MB-231/ATCC; conditions: Homo sapiens, 48 h; MDA-MB-231/ATCC (breast); drug exposure two days, SRB endpoint; read-out: GI-50 value
Procedure: as §1

LOX IMVI = experiment: NCI 60 cell assay, melanoma LOX IMVI; conditions: Homo sapiens, 48 h, drug exposure two days, SRB endpoint, read-out: GI-50 value
Procedure: as §1

M14 = experiment: NCI 60 cell assay, melanoma M14; conditions: Homo sapiens, 48 h, drug exposure two days, SRB endpoint, read-out: GI-50 value
Procedure: as §1

SNB-19 = experiment: NCI 60 cell assay, CNS SNB-19; conditions: Homo sapiens, 48 h; SNB-19 (CNS); drug exposure two days, SRB endpoint; read-out: GI-50 value
Procedure: as §1

NCI-H322M = experiment: NCI 60 cell assay, NSCLC NCI-H322M; conditions: Homo sapiens, 48 h, drug exposure two days, SRB endpoint, read-out: GI-50 value
Procedure: as §1

786-0 = experiment: NCI 60 cell assay, renal 786-0; conditions: Homo sapiens, 48 h; 786-0 (renal); drug exposure two days, SRB endpoint; read-out: GI-50 value
Procedure: as §1

EKVX = experiment: NCI 60 cell assay, NSCLC EKVX; conditions: Homo sapiens, 48 h, drug exposure two days, SRB endpoint, read-out: GI-50 value
Procedure: as §1

| SMILES | GI50 (K-562) | GI50 (UO-31) | GI50 (HL-60(TB)) | GI50 (HOP-92) | GI50 (RPMI-8226) | GI50 (RXF 393) | GI50 (OVCAR-3) | GI50 (HOP-62) | GI50 (SW-620) | GI50 (HCT-116) | GI50 (OVCAR-8) | GI50 (HCT-15) | GI50 (SN12C) | GI50 (DU-145) | GI50 (SK-MEL-2) | GI50 (MCF7) | GI50 (NCI-H226) | GI50 (CCRF-CEM) | GI50 (PC-3) | GI50 (SNB-75) | further results |
| --- | --- | --- | --- | --- | --- | --- | --- | --- | --- | --- | --- | --- | --- | --- | --- | --- | --- | --- | --- | --- | --- |
| CC1=C2[C@@H](CC1)[C@]1(C)O[C@@](C(C)C)(C[C@H]1OC(=O)[C@H](C)O)[C@H]2OC(=O)C=Cc1ccccc1 [(Il), (3aR,4S,5R,7R,8S)-5-(((S)-2-hydroxypropanoyl)oxy)-7-isopropyl-1,4-dimethyl-2,3,3a,4,5,6,7,8-octahydro-4,7-epoxyazulen-8-yl cinnamate] | 15 µM | 0.71 µM | 11 µM | 6 µM | 8 µM | 0.045 µM | 13 µM | 15 µM | 15 µM | 12 µM | 0.35 µM | 12 µM | 0.21 µM | 17 µM | 15 µM | 10 µM | 11 µM | 16 µM | 4 µM | 24 µM | GI50 (KM12): 16 µM; GI50 (MDA-MB-231/ATCC): 15 µM; GI50 (LOX IMVI): 15 µM; GI50 (M14): 13 µM; GI50 (SNB-19): 18 µM; GI50 (NCI-H322M): 19 µM; GI50 (786-0): 13 µM; GI50 (EKVX): 10 µM |
| CC1=C2[C@@H](CC1)[C@]1(C)O[C@@](C3CCCCC3)(C[C@H]1OC(=O)CO)[C@H]2OC(=O)C=Cc1ccccc1 [(Iq), (3aR,4S,5R,7R,8S)-7-cyclohexyl-5-(2-hydroxyacetoxy)-1,4-dimethyl-2,3,3a,4,5,6,7,8-octahydro-4,7-epoxyazulen-8-yl cinnamate] | 13 µM | 0.46 µM | 15 µM | 6 µM | 10 µM | 0.025 µM | 13 µM | 14 µM | 14 µM | 9 µM | 0.1 µM | 10 µM | 0.06 µM | 13 µM | 17 µM | 4.5 µM | 12 µM | 15 µM | 12 µM | 14 µM | GI50 (KM12): 14 µM; GI50 (MDA-MB-231/ATCC): 18 µM; GI50 (LOX IMVI): 14 µM; GI50 (M14): 15 µM; GI50 (SNB-19): 17 µM; GI50 (NCI-H322M): 17 µM; GI50 (786-0): 13 µM; GI50 (EKVX): 11 µM |
| CC1=C2[C@@H](CC1)[C@]1(C)O[C@@](C(C)C)(C[C@H]1OC(=O)CO)[C@H]2OC(=O)C1CC1c1ccccc1 (stereo partly drawn) [Compound (Ij), (3aR,4S,5R,7R,8S)-5-(2-hydroxyacetoxy)-7-isopropyl-1,4-dimethyl-2,3,3a,4,5,6,7,8-octahydro-4,7-epoxyazulen-8-yl-2-phenylcyclopropane-1-carboxylate] | 15 µM | 11 µM | 14 µM | 13 µM | 13 µM | 0.069 µM | 14 µM | 17 µM | 17 µM | 19 µM | 13 µM | 13 µM | 7.4 µM | 16 µM | 16 µM | 8.9 µM | 17 µM | 18 µM | 9 µM | 15 µM | GI50 (KM12): 13 µM; GI50 (MDA-MB-231/ATCC): 15 µM; GI50 (LOX IMVI): 15 µM; GI50 (M14): 13 µM; GI50 (SNB-19): 17 µM; GI50 (NCI-H322M): 19 µM; GI50 (786-0): 15 µM; GI50 (EKVX): 13 µM |

— patent US10287297B2, “Epoxyazulene derivatives useful for treating cancer and diabetes” (The United States of America, as represented by the …, priority 2015, dated 2019)
